Experimental data: patent publication US20230257435A1, “Wound Healing Composition and Uses Thereof” (AGENCY FOR SCIENCE, TECHNOLOGY AND RESEARCH, priority 2020, published 2023)

How the values were obtained:
[1] = test system: keratinocytes and dermal fibroblasts; assay: In vitro scratch wound-healing assay; format: cell-based, human and mouse
Procedure: (§1) A confluent monolayer of control and Agrin depleted cells in a 6-well plate was subjected to a unidirectional scratch using a 20 μl pipette tip. This was followed by washing with 1×PBS at room temperature and incubation in complete culture media at 37° C. and 5% CO2 with or without sAgrin used as indicated. Phase contrast images of the wound area were taken periodically at the indicated time-points. For some wound-healing migration assays, keratinocytes were cultured on either soft or stiff substrates within a stencil barrier (Nalge Nunc., Inc) for 18 h. Upon removal of the barrier, the cells were allowed to migrate and imaged using an Axiovert 200 inverted microscope at indicated time-points.

[2] = test system: mouse skin explants; assay: Mouse skin explant assay (keratinocyte outgrowth); format: cell-based; settings: soft matrix with 20 μg/ml sAgrin; MMP408 5 nM, 5 days
Procedure: Three days old ICR strain mouse pups were sacrificed and the hind skin on either side of the midline in the shoulder region was washed in 70% ethanol and excised using scalpel. The excised skin was washed in 70% ethanol and placed (dermis side down) on the pre-made gel substrates of defined stiffness, either in the absence or presence of 20 μg/ml sAgrin. The explants were allowed to adhere for 2 h before adding the keratinocyte culture medium (DMEM) containing 300 μM Ca^2+ as described previously^31. The keratinocyte outgrowth and the skin tissues regularly imaged under an Axiovert-200 inverted microscope and were subsequently fixed in 4% paraformaldehyde and immunostained for Keratin 17 antibody.
Tissue culture plates were coated with Col-T-gel (Fischer Scientific) of stiffness ranging from 0.8 KPa (soft) to 30 KPa (stiff) as per manufacturer recommendations and allowed to solidify for 40 min at 37° C. inside tissue culture incubators. Some experiments were performed with cells seeded on the poly-hydrogel plates of defined stiffness: 0.2 kPa and 16 kPa soft and hard polyhydrogels, respectively (CytoSoft, Advanced Biomatrix, Inc.,). The determination of stiffness of silicone substrates were done by the manufacturer as per previously published protocols. For certain experiments, indicated amounts of sAgrin was incorporated into the 0.8 KPa collagen gels before gelation process. Upon gelation, trypsinized cells or excised mouse skin explants were plated onto the gels of different stiffness either alone or containing sAgrin. The cells/tissues were incubated under standard culture condition with 500 μl recommended culture medium for the indicated days. The crossbow shaped micropatterns with fibronectin coated islands were generated by microlithography on a 19.5×19.5 mm coverslide from Cytoo, Inc., France. The micropatterns had surface areas of 800μ^2 or 1600μ^2, respectively. Fifty thousand cells after initial siRNA treatment was placed on the micropatterns for 4-6 h before processing them for immunofluorescence. […]

[3] = test system: phosphorylated myosin light chain (pMLC); assay: Actomyosin cables / pMLC activation after wound scratch; format: cell-based, human; settings: 10 μm Blebbistatin 2 h before scratch
Procedure: Indicated cells post-manipulation were washed twice with cold Phosphate buffered saline (PBS) and lysed with cold 1% NP-40 lysis buffer supplemented with 1× protease inhibitor cocktail (Roche Applied Biosciences) for 15 mins at 4° C. The cell lysate was centrifuged at 13,000 rpm for 15 min. This was followed by protein estimation using Bradford reagent. Subsequently, […] of total protein was mixed with an equal volume of 2× Laemmli sample buffer and heated at 95° C. for 5 mins. This was followed by resolution with SDS-PAGE gel. The resolved proteins were transferred onto nitrocellulose membrane and blocked in 5% skimmed milk reconstituted in 1×PBS containing 0.1% Tween-20, and probed overnight with the respective primary antibody. The membrane was then washed with 1×PBS supplemented with 0.1% Tween-20: three times at 15 min intervals. This was followed by 1 h incubation in conjugated horseradish peroxidase HRP secondary antibody (Santa Cruz Biotechnology). Post-incubation, the blot was again washed three times as above and then overlaid with enhanced chemiluminescence (ECL) substrate (Pierce/Bio-Rad) and visualized on X-ray film by image processor or digitally by Chemidoc analyzer (Bio-Rad). The density of the various bands was quantified using the Image-J software.
Cells were cultured on eight-well chamber slides or coverslips over-night. Cells were then washed twice with PBS and fixed for 15 min with 4% paraformaldehyde. Subsequently, the cells were permeabilized for 15 min with 0.1% Triton X in Phosphate buffered saline containing 1 mM Ca^+2 and 1 mM Mg^+2 (PBSCM) at room temperature. The permeabilized cells were incubated with indicated antibodies in fluorescent dilution buffer (FDB) for 1-2 h at RT or overnight at 4° C., followed by 5 washes with PBSCM and incubation with secondary antibody; Alexa Fluor (Thermo Fisher Scientific) for 1 h at RT. Slides were again washed five times with PBSCM and mounted with Vectashield medium containing DAPI. The stained cells were then imaged by a Zeiss confocal microscope. The images were processed and analyzed by Zen blue software. Intensity measurements were acquired using tool selection parameter in image analysis within the Zen blue software.
as §1

[4] = test system: pMLC; assay: Force transmission via ligand conjugated magnetic beads; format: cell-based, human; settings: siAgrin cells
Procedure: The ligands were conjugated to 4.5 μm epoxide paramagnetic beads (Dynabeads M-450 Epoxy, Thermo Fisher Scientific) according to the manufacturer's manual. Briefly, the beads were washed twice in 0.1 M sodium phosphate buffer, pH 7.4. Subsequently. 8×10^7 beads were conjugated to 20 μg sAgrin, BSA and FN per in 0.1 M sodium phosphate buffer at pH 7.4 for 16-18 h at 4° C. with gentle rotation throughout. The degree of protein conjugation to the beads was verified by a reducing SDS-PAGE gel analysis using a subset of ligand conjugated beads. The remaining beads were washed and subsequently stored in 0.1% BSA-phosphate buffered saline (PBS) pH 7.4 at 4° C. They were subsequently suspended in medium and added on the cells for 30 min at 37° C. After a brief wash with PBS to remove excess non-adherent beads, the cells were placed under a permanent neodymium magnet (J Magnetics, USA) at a distance of 6 mm apart for another 30 min that allowed a vertical tensile force in the magnitudes of ˜200 pN on the beads. The cells were then fixed in 4% paraformaldehyde, permeabilized and processed for immunofluorescence.

## COC(=O)Nc1ccc2oc3cc(S(=O)(=O)N[C@H](C(=O)O)C(C)C)ccc3c2c1 [MMP408, reference compound]
[1]; 5 nM MMP408, soft substrates and normal culture conditions
  migration of sAgrin induced K17 expressing keratinocytes: blunted the migration of sAgrin induced K17 expressing keratinocytes
[2]
  sAgrin induced K17 expressing migratory outgrowth: abruptly abolished

## Cc1ccc2c(c1)C(=O)C1(O)CCN(c3ccccc3)C1=N2 (centres unmarked) [blebbistatin, reference compound]
[1]; 10 μm Blebbistatin, 18 h post-wounding
  sAgrin induced migration post-wound injury: abolished the sAgrin induced migration
[3]
  sAgrin induced actomyosin cables: abolished

B1: syndecan-4: Syndecan-4 conjugated to magnetic beads (protein, UniProt P31431 19-198, looked up)
Syndecan-4: ESIRETEVIDPQDLLEGRYFSGALPDDEDVVGPGQESDDFELSGSGDLDDLEDSMIGPEVVHPLVPLDNHIPERAGSGSQVPTEPKKLEENEVIPKRISPVEESEDVSNKVSMSSTVQGSNIFERTEVLAALIVGGIVGILFAVFLILLLMYRMKKKDEGSYDLGKKPIYKKAPTNEFYA
modifications: conjugated to magnetic beads
notes: Syndecan-4 conjugated to magnetic beads
[4]
  rescue of reduced pMLC in Agrin depleted cells by force through ligand beads: rather insufficient to rescue myosin mechanotension
